The values that follow come from paper PMC6984391, “Anion carriers as potential treatments for cystic fibrosis: transport in cystic fibrosis cells, and additivity to channel-targeting drugs” (Chemical Science, 2019).

One assay relates to WT-CFTR-YFP-FRT cells. Description: Anionophore anion transport in WT-CFTR-YFP-FRT cells. The conditions noted are these: anionophore 50 μM, CFTRinh-172 10 μM. The format is cell-based, Fischer rat. The source says: Next, we sought to learn whether the activities of 11, 12, 15, and 19 are additive to that of CFTR. For these studies, we used FRT cells co-expressing wild-type human CFTR and YFP-H148Q/I152L (WT-CFTR-YFP-FRT cells).[28] […] This latter effect is difficult to explain and merits further investigation.
FRT cells stably expressing the halide sensor YFP-H148Q/I152L6 were generous gifts of AS Verkman (University of California, San Francisco), while CFBE41o- cells7 stably expressing YFP (YFP-CFBE cells) were a generous gift of LJV Galietta (Telethon Institute for Genetics and Medicine). YFP-FRT cells were cultured as described previously for FRT cells8 except that media contained 10% fetal bovine serum, 2 mM L-glutamine and the selection agent G418 (YFP-FRT cells, 0.5 mg ml-1; WT-CFTR-YFP-FRT cells, 0.75 mg ml-1) or zeocin (F508del-CFTR-YFP-FRT cells, 0.5 mg ml-1). YFP-CFBE cells were cultured in minimal essential medium (MEM) supplemented with 10% fetal bovine serum, 2 mM L-glutamine, 100 U ml-1 penicillin and 100 mg ml-1 streptomycin. […]
(§1) Fluorescence plate reader assay […]
quenching of YFP fluorescence at 37 °C using a microplate reader following the method of Galietta et al..9 The microplate reader (model: FLUORstar Omega; BMG LABTECH Ltd., Aylesbury, UK) was equipped with a syringe pump and excitation (500 ± 10 nm) and emission (535 ± 15 nm) filters (Chroma Technology GmbH, Olching, Germany). […]
(§2) the PBS bathing cells 10 minutes prior to PBS iodide addition, whereas UTP was added to cells with the PBS iodide solution. Fluorescence was measured for 14 seconds; 2 seconds before and 12 seconds after injection of 110 µl PBS iodide solution (137 mM Cl- replaced by I-) into each well (to obtain a final concentration of I- of 100 mM).
We expressed cell fluorescence values (F) relative to the fluorescence value immediately before I- injection (F0), excluding the initial decrease, which likely represents the quenching of extracellular YFP released from cells and signal reduction accompanying the increase in solution volume bathing cells. […]

Assay [1] has as its system F508del-CFTR-YFP-FRT cells. Description: Anionophore anion transport in F508del-CFTR-YFP-FRT cells. The format is cell-based, Fischer rat. The conditions noted are these: for anion transport in control F508del-CFTR-YFP-FRT cells / additivity of anion transport to rescue of F508del-CFTR: 50 μM; for anion transport in control F508del-CFTR-YFP-FRT cells: cells grown at 37 °C; for additivity of anion transport to rescue of F508del-CFTR: 27 °C or lumacaftor rescue; for anion transport when added together with forskolin and ivacaftor: anionophore 50 μM, forskolin 10 μM, ivacaftor 1 μM.
Source text: To learn whether anionophores are additive to small molecules that rescue disease-causing CFTR variants, we used FRT cells co-expressing F508del-CFTR, the predominant CF mutation and YFP-H148Q/I152L (F508del-CFTR-YFP-FRT cells).[28] To rescue the plasma membrane expression of F508del-CFTR, we used low temperature or the clinically-licensed CFTR corrector lumacaftor,[38],[39] while to increase its activity, we used the clinically-licensed CFTR potentiator ivacaftor.[40]
FRT cells stably expressing the halide sensor YFP-H148Q/I152L6 were generous gifts of AS Verkman (University of California, San Francisco), while CFBE41o- cells7 stably expressing YFP (YFP-CFBE cells) were a generous gift of LJV Galietta (Telethon Institute for Genetics and Medicine). YFP-FRT cells were cultured as described previously for FRT cells8 except that media contained 10% fetal bovine serum, 2 mM L-glutamine and the selection agent G418 (YFP-FRT cells, 0.5 mg ml-1; WT-CFTR-YFP-FRT cells, 0.75 mg ml-1) or zeocin […]
(F508del-CFTR-YFP-FRT cells, 0.5 mg ml-1). […]
U ml-1 penicillin and 100 mg ml-1 streptomycin. All cells were incubated at 37 °C in a humidified atmosphere with 5% CO2.
For fluorescence microplate reader studies, cells were seeded in 96-well plates and grown in culture media at 37 °C in a humidified atmosphere with 5% CO2 for 3 – 4 days until 90% confluent. To promote the plasma membrane expression of F508del-CFTR, prior to study F508del-YFP-FRT cells were either cultured at 27 °C for 24 h or treated with lumacaftor (3 µM) in YFP-FRT media containing 1% fetal bovine serum at 37 °C for 24 h. […]
as §1
quenching of YFP fluorescence at 37 °C using a microplate reader following the method of Galietta et al..9 The microplate reader (model: FLUORstar Omega; BMG LABTECH Ltd., Aylesbury, UK) was equipped with a syringe pump and excitation (500 ± 10 nm) and emission (535 ± 15 nm) filters (Chroma Technology GmbH, Olching, Germany). After washing cells twice with PBS (composition (mM): 137 NaCl, 2.7 KCl, 8.1 Na2HPO4, 1.5 KH2PO4, 1 CaCl2 and 0.5 MgCl2, pH 7.40), cells were incubated with test anionophores (1 – 50 µM) or the vehicle (DMSO [0.1 – 0.5% v v-1]) in 40 µl of PBS for 10 – 120 minutes according to the experimental design. Other compounds, including forskolin, ivacaftor and channel inhibitors were added to […]
as §2
We expressed cell fluorescence values (F) relative to the fluorescence value immediately before I- injection (F0), excluding the initial decrease, which likely represents the quenching of extracellular YFP released from cells and signal reduction accompanying the increase in solution volume bathing cells. To quantify anion transport by test anionophores, we determined the initial slope of the fluorescence decay following I - addition by fitting first order exponential functions to the last 12 seconds of each fluorescence recording. In each experim ent, n values represent the mean of two replicates and all treatments were tested at least three times using different microplates. […]
FRT cells was selected and the cells were perfused with (i) PBS for 5 minutes then (ii) PBS containing I- (10 mM) (made by preparing PBS with 127 mM NaCl to maintain osmolarity) for 5 minutes and finally (iii) PBS for 30 minutes to remove thoroughly I- from the perfusion chamber. YFP-FRT cells were repeatedly treated with I- (10 mM) and then washed with PBS […]
During all interventions, the rate of solution perfusion was 8 – 10 ml min-1; temperature was 37 °C and except for the first 15 minutes of PBS washing, no data were collected between cycles of I- perfusion and PBS […]
For cell fluorescence measurements, we used the Volocity (Improvision) data […]

Take `CCOC(=O)[C@]12CC[C@@H](NC(=S)Nc3cc(C(F)(F)F)cc(C(F)(F)F)c3)C[C@@H]1C[C@@H](NC(=S)Nc1cc(C(F)(F)F)cc(C(F)(F)F)c1)CC2` [Compound 15]: in the assay on WT-CFTR-YFP-FRT cells, the “effect of CFTRinh-172 on anion transport by anionophore” value (shortened to “effect”) is reported as “small, albeit significant, increase”. In addition, in assay [1], the “anion transport in control F508del-CFTR-YFP-FRT cells” value is “mediated anion transport”; the “additivity of anion transport to rescue of F508del-CFTR” value (from here on “additivity of anion transport”) is reported as “additive”; the “anion transport when added together with forskolin and ivacaftor” value (from here on “anion transport when added together”) is on record as “increased further the amount of anion transport”.

In the case of `CCOC(=O)[C@]12CC[C@@H](NC(=S)Nc3ccc([N+](=O)[O-])cc3)C[C@@H]1C[C@@H](NC(=S)Nc1ccc([N+](=O)[O-])cc1)CC2` [Compound 12], the “effect” value in the assay on WT-CFTR-YFP-FRT cells was “without effect”. Moreover, in assay [1], the “anion transport in control F508del-CFTR-YFP-FRT cells” value was “mediated anion transport”; the “additivity of anion transport” value is “additive”; the “anion transport when added together” value is on record as “increased further the amount of anion transport”.

For the molecule `FC(F)(F)c1cc(NC(=S)NCCN(CCNC(=S)Nc2cc(C(F)(F)F)cc(C(F)(F)F)c2)CCNC(=S)Nc2cc(C(F)(F)F)cc(C(F)(F)F)c2)cc(C(F)(F)F)c1` [Compound 19], the “effect” value in the assay on WT-CFTR-YFP-FRT cells is recorded as “inhibited the activity”. In addition, in assay [1], the “anion transport in control F508del-CFTR-YFP-FRT cells” value is “mediated anion transport”; the “additivity of anion transport” value is listed as “additive”; the “anion transport when added together” value is reported as “increased further the amount of anion transport”.
